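Cells were grown in 96-well plates and exposed to each compound for 48 hours at five concentrations; endpoints were interpolated linearly between bracketing concentrations, or set to the highest concentration if not reached. GI50 marks 50% less growth.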 Calls of active or inactive are those of the source. No stated cut-off is given here; in the data, active = GI50 up to about 1.1 µM and inactive = higher.
How the values were obtained:
Assay in all cases: DTP human tumour cell line panel, 48 h
M14 = test system: M14
PC-3 = test system: PC-3
SF-268 = test system: SF-268
COLO 205 = test system: COLO 205
HL-60 = test system: HL-60
MCF7 = test system: MCF7
T47D = test system: T47D
MDA-MB-435 = test system: MDA-MB-435
CAKI-1 = test system: CAKI-1
IGROV-1 = test system: IGROV-1
NCI-H522 = test system: NCI-H522
SK-MEL-5 = test system: SK-MEL-5
DU-145 = test system: DU-145
ACHN = test system: ACHN
UACC-62 = test system: UACC-62
Hs-578T = test system: Hs-578T
SF-295 = test system: SF-295
SNB-19 = test system: SNB-19
SNB-75 = test system: SNB-75
EKVX = test system: EKVX

SMILES	GI50 (M14)	GI50 (PC-3)	GI50 (SF-268)	GI50 (COLO 205)	GI50 (HL-60)	GI50 (MCF7)	GI50 (T47D)	GI50 (MDA-MB-435)	GI50 (CAKI-1)	GI50 (IGROV-1)	GI50 (NCI-H522)	GI50 (SK-MEL-5)	GI50 (DU-145)	GI50 (ACHN)	GI50 (UACC-62)	GI50 (Hs-578T)	GI50 (SF-295)	GI50 (SNB-19)	GI50 (SNB-75)	GI50 (EKVX)
COC1=C(Br)C(O)C2(C=C1Br)CC(C(=O)NCCCCNC(=O)C1=NOC3(C=C(Br)C(OC)=C(Br)C3O)C1)=NO2 (configuration not stated)	15.5 µM (inactive)	20.4 µM (inactive)	13.5 µM (inactive)	15.8 µM (inactive)	20.6 µM (inactive)	21.8 µM (inactive)	11.4 µM (inactive)	19.9 µM (inactive)	63.4 µM (inactive)	11.7 µM (inactive)	11.3 µM (inactive)	11.9 µM (inactive)	31.6 µM (inactive)	26.3 µM (inactive)	31.8 µM (inactive)	12.4 µM (inactive)	25.1 µM (inactive)	37.3 µM (inactive)	16.9 µM (inactive)	
Cc1cc(S(=O)(=O)/N=C(\NN)NNc2cccc(C(F)(F)F)n2)c(S)cc1Cl	17.9 µM (inactive)	17.3 µM (inactive)	21.4 µM (inactive)	19.5 µM (inactive)	27.4 µM (inactive)	> 10 µM (inactive)	17.8 µM (inactive)	18.2 µM (inactive)	20.8 µM (inactive)	> 10 µM (inactive)	24.4 µM (inactive)	20 µM (inactive)	18.5 µM (inactive)	21.4 µM (inactive)	16.7 µM (inactive)	22.2 µM (inactive)		24.3 µM (inactive)	14.6 µM (inactive)	22.6 µM (inactive)
O=C(Nc1ccccc1)n1[nH]c(=O)n(-c2ccccc2)c1=O		> 100 µM (inactive)	> 100 µM (inactive)	> 100 µM (inactive)	> 100 µM (inactive)	> 100 µM (inactive)	> 100 µM (inactive)	> 100 µM (inactive)	> 100 µM (inactive)		> 100 µM (inactive)	> 100 µM (inactive)	> 100 µM (inactive)	> 100 µM (inactive)	> 100 µM (inactive)	> 100 µM (inactive)	> 100 µM (inactive)	> 100 µM (inactive)	> 100 µM (inactive)	
CN(C)/N=N/c1nc2c(c(=O)n(C)c(=O)n2C)n1C	> 100 µM (inactive)	> 100 µM (inactive)	> 100 µM (inactive)	> 100 µM (inactive)		7.5 µM (inactive)	14.3 µM (inactive)	> 100 µM (inactive)	> 100 µM (inactive)	> 100 µM (inactive)	> 100 µM (inactive)	> 100 µM (inactive)	> 100 µM (inactive)	> 100 µM (inactive)	> 100 µM (inactive)	> 100 µM (inactive)	> 100 µM (inactive)	> 100 µM (inactive)	> 100 µM (inactive)	> 100 µM (inactive)
CSc1nc2c(N)ncnc2n1C	> 100 µM (inactive)	> 100 µM (inactive)	> 100 µM (inactive)	> 100 µM (inactive)		> 100 µM (inactive)	> 100 µM (inactive)	> 100 µM (inactive)	> 100 µM (inactive)	> 100 µM (inactive)	> 100 µM (inactive)	> 100 µM (inactive)	> 100 µM (inactive)	> 100 µM (inactive)	> 100 µM (inactive)	> 100 µM (inactive)	> 100 µM (inactive)	> 100 µM (inactive)	82.8 µM (inactive)	> 100 µM (inactive)
COc1cccc2c1/c(=C/c1ccc(N(C)C)cc1)c1cc(-c3ccccc3)[n+](C)n12	0.126 µM (active)	0.0321 µM (active)	0.109 µM (active)	0.0272 µM (active)	0.0155 µM (active)	0.0957 µM (active)	0.0964 µM (active)	0.0773 µM (active)	0.804 µM (active)	0.083 µM (active)	0.168 µM (active)	0.155 µM (active)	0.0986 µM (active)	0.216 µM (active)	0.182 µM (active)	0.147 µM (active)	0.0813 µM (active)	0.0933 µM (active)	0.189 µM (active)	

Source: ChEMBL document CHEMBL1201862, “PubChem BioAssay data set” (2004)
